This is an account of results in article PMC10620162, “Structure—yeast α-glucosidase inhibitory activity relationship of 9-O-berberrubine carboxylates” (Scientific Reports, 2023).

The test deals with T1, yeast α-glucosidase (Saccharomyces cerevisiae, UniProt P53341).
T1 construct: purchased Sigma Aldrich
Description: biochemical. The conditions noted are these: for inhibition at 50 µM: read-out: Inhibition at 50 μM (%), 50 μM. On the procedure: Berberrubine derivatives will be assayed for yeast α-glucosidase inhibitory activity. The protocol described by Ramadhan et al. will be used[37]. Briefly, yeast α-glucosidase (0.1 U/mL) and substrate (1 mM p-nitrophenyl-α-D-glucopyranoside) were dissolved in 0.1 M phosphate buffer (pH 6.9). A 10 μL test sample was pre-incubated with α-glucosidase (40 μL) at 37 °C for 10 min. A substrate solution (50 μL) was then added to the reaction mixture and incubated at 37 °C for an additional 20 min, and terminated by adding 1 M Na2CO3 solution (100 μL). […] The percentage inhibition of activity was calculated as follows: % Inhibition = [(A0 − A1)/A0] × 100, where: A0 is the absorbance without the sample; A1 is the absorbance with the sample. The IC50 value was deduced from the plot of % inhibition versus the concentration of the test sample.

Where two headings read alike, the source gives them in different places.

T1 sequence (P53341 whole entry): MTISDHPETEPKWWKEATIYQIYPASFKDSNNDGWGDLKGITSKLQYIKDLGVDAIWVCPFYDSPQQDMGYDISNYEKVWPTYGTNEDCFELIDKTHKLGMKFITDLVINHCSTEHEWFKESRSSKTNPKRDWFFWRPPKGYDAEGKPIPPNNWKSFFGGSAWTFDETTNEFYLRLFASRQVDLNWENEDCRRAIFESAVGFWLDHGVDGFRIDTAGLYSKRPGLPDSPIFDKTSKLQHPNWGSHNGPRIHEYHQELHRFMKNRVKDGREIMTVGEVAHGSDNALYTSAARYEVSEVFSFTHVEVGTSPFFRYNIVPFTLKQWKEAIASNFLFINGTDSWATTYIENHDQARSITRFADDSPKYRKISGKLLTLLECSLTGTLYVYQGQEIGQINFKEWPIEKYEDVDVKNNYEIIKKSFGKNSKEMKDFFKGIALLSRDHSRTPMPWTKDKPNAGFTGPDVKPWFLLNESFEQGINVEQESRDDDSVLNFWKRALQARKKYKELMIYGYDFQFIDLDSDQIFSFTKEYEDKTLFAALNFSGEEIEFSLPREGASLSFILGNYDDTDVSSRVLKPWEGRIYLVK

For `COc1ccc2cc3[n+](cc2c1O)CCc1cc2c(cc1-3)OCO2` [BBRB, 9-hydroxy-10-methoxy-5,6-dihydro-[1,3]dioxolo[4,5-g]isoquinolino[3,2-a]isoquinolin-7-ium chloride, reference compound], the inhibition (commonly the share of the control response that was lost under treatment) at 50 µM is less than 0%.
For the molecule `COc1ccc2cc3[n+](cc2c1OC(=O)c1ccccc1)CCc1cc2c(cc1-3)OCO2.[Cl-]` [Compound 1, 9-(benzoyloxy)-10-methoxy-5,6-dihydro-[1,3]dioxolo[4,5-g]isoquinolino[3,2-a]isoquinolin-7-ium chloride], inhibition was half-maximal at 25.3 ± 2.63 µM (IC50) and the inhibition at 50 µM came out at 58%. The Inhibition (usually how much of the control response was suppressed) at 50 μM (%) (50 μM) is 57.67%.
With `COc1ccccc1C(=O)Oc1c(OC)ccc2cc3[n+](cc12)CCc1cc2c(cc1-3)OCO2` [Compound 2, 10-methoxy-9-((2-methoxybenzoyl)oxy)-5,6-dihydro-[1,3]dioxolo[4,5-g]isoquinolino[3,2-a]isoquinolin-7-ium chloride], the IC50 – broadly, the concentration at which inhibition is half-maximal – is 19.5 ± 1.62 µM and the inhibition at 50 µM was determined as 79.1%.
For `COc1cccc(C(=O)Oc2c(OC)ccc3cc4[n+](cc23)CCc2cc3c(cc2-4)OCO3)c1` [Compound 3, 10-methoxy-9-((3-methoxybenzoyl)oxy)-5,6-dihydro-[1,3]dioxolo[4,5-g]isoquinolino[3,2-a]isoquinolin-7-ium chloride], the IC50 is 11.6 ± 1.19 µM and the inhibition at 50 µM is 89.7%.
With `COc1ccc(C(=O)Oc2c(OC)ccc3cc4[n+](cc23)CCc2cc3c(cc2-4)OCO3)cc1` [Compound 4, 10-methoxy-9-((4-methoxybenzoyl)oxy)-5,6-dihydro-[1,3]dioxolo[4,5-g]isoquinolino[3,2-a]isoquinolin-7-ium chloride], the IC50 was 18.4 ± 1.31 µM and the inhibition at 50 µM was found to be 80%.
For `COc1ccc2cc3[n+](cc2c1OC(=O)c1cccc(O)c1)CCc1cc2c(cc1-3)OCO2` [Compound 5, 9-((3-hydroxybenzoyl)oxy)-10-methoxy-5,6-dihydro-[1,3]dioxolo[4,5-g]isoquinolino[3,2-a]isoquinolin-7-ium chloride], the inhibition at 50 µM came out at 98.1%. Besides, the IC50 (read-out: IC50) was found to be 7.51 ± 0.42 µM.
For the molecule `COc1ccc(C(=O)Oc2c(OC)ccc3cc4[n+](cc23)CCc2cc3c(cc2-4)OCO3)cc1OC` [Compound 6, 9-((3,4-dimethoxybenzoyl)oxy)-10-methoxy-5,6-dihydro-[1,3]dioxolo[4,5-g]isoquinolino[3,2-a]isoquinolin-7-ium chloride], the IC50 was 19.1 ± 1.01 µM and the inhibition at 50 µM worked out at 73.9%.
`COc1ccc2cc3[n+](cc2c1OC(=O)c1ccc2c(c1)OCO2)CCc1cc2c(cc1-3)OCO2` [Compound 7, 9-((benzo[d][1,3]dioxole-5-carbonyl)oxy)-10-methoxy-5,6-dihydro-[1,3]dioxolo[4,5-g]isoquinolino[3,2-a]isoquinolin-7-ium chloride]: the inhibition at 50 µM came to 99.7%. Besides, the IC50 (read-out: IC50) is 6.44 ± 0.5 µM.
Take `COc1cc(C(=O)Oc2c(OC)ccc3cc4[n+](cc23)CCc2cc3c(cc2-4)OCO3)cc(OC)c1OC` [Compound 8, 10-methoxy-9-((3,4,5-trimethoxybenzoyl)oxy)-5,6-dihydro-[1,3]dioxolo[4,5-g]isoquinolino[3,2-a]isoquinolin-7-ium chloride]: 23.9 ± 1.87 µM corresponded to half-maximal inhibition (IC50) and the inhibition at 50 µM was 72%.
As to `COc1ccc2cc3[n+](cc2c1OC(=O)c1ccccc1Cl)CCc1cc2c(cc1-3)OCO2` [Compound 10, 9-((2-chlorobenzoyl)oxy)-10-methoxy-5,6-dihydro-[1,3]dioxolo[4,5-g]isoquinolino[3,2-a]isoquinolin-7-ium chloride], the midpoint of inhibition, the IC50, lay at 12.2 ± 0.82 µM and the inhibition at 50 µM turned out to be 88.5%.
As to `COc1ccc2cc3[n+](cc2c1OC(=O)c1cccc(Cl)c1)CCc1cc2c(cc1-3)OCO2` [Compound 11, 9-((3-chlorobenzoyl)oxy)-10-methoxy-5,6-dihydro-[1,3]dioxolo[4,5-g]isoquinolino[3,2-a]isoquinolin-7-ium chloride], the inhibition at 50 µM was 95.5%. Moreover, for the setting “read-out: IC50”, the IC50 was 9.43 ± 0.8 µM.
Regarding `COc1ccc2cc3[n+](cc2c1OC(=O)c1ccc(Cl)cc1)CCc1cc2c(cc1-3)OCO2` [Compound 12, 9-((4-chlorobenzoyl)oxy)-10-methoxy-5,6-dihydro-[1,3]dioxolo[4,5-g]isoquinolino[3,2-a]isoquinolin-7-ium chloride], half-maximal inhibition (IC50) required 10.6 ± 0.6 µM and the inhibition at 50 µM is 96.5%.
On to `COc1ccc2cc3[n+](cc2c1OC(=O)c1ccccc1F)CCc1cc2c(cc1-3)OCO2` [Compound 13, 9-((2-fluorobenzoyl)oxy)-10-methoxy-5,6-dihydro-[1,3]dioxolo[4,5-g]isoquinolino[3,2-a]isoquinolin-7-ium chloride], for which the midpoint of inhibition, the IC50, lay at 24.9 ± 1.78 µM and the inhibition at 50 µM was 72%.
Consider `COc1ccc2cc3[n+](cc2c1OC(=O)c1cccc(F)c1)CCc1cc2c(cc1-3)OCO2` [Compound 14, 9-((3-fluorobenzoyl)oxy)-10-methoxy-5,6-dihydro-[1,3]dioxolo[4,5-g]isoquinolino[3,2-a]isoquinolin-7-ium chloride], for which the midpoint of inhibition, the IC50, lay at 32.8 ± 1.88 µM and the inhibition at 50 µM came to 63%.
Regarding `COc1ccc2cc3[n+](cc2c1OC(=O)c1ccc(F)cc1)CCc1cc2c(cc1-3)OCO2` [Compound 15, 9-((4-fluorobenzoyl)oxy)-10-methoxy-5,6-dihydro-[1,3]dioxolo[4,5-g]isoquinolino[3,2-a]isoquinolin-7-ium chloride], the IC50 worked out at 21.3 ± 1.97 µM and the inhibition at 50 µM was determined as 73.9%.
In the case of `COc1ccc2cc3[n+](cc2c1OC(=O)c1ccccc1Br)CCc1cc2c(cc1-3)OCO2` [Compound 16, 9-((2-bromobenzoyl)oxy)-10-methoxy-5,6-dihydro-[1,3]dioxolo[4,5-g]isoquinolino[3,2-a]isoquinolin-7-ium chloride], the inhibition at 50 µM was 95.3%. Moreover, for the setting “read-out: IC50”, the IC50 came to 6.45 ± 0.52 µM.
As to `COc1ccc2cc3[n+](cc2c1OC(=O)c1ccccc1I)CCc1cc2c(cc1-3)OCO2` [Compound 17, 9-((2-iodobenzoyl)oxy)-10-methoxy-5,6-dihydro-[1,3]dioxolo[4,5-g]isoquinolino[3,2-a]isoquinolin-7-ium chloride], the inhibition at 50 µM is 94.9%. Besides, the IC50 (read-out: IC50) turned out to be 9.24 ± 0.5 µM.
In the case of `COc1ccc2cc3[n+](cc2c1OC(=O)c1ccccc1C(F)(F)F)CCc1cc2c(cc1-3)OCO2` [Compound 18, 10-methoxy-9-((2-(trifluoromethyl)benzoyl)oxy)-5,6-dihydro-[1,3]dioxolo[4,5-g]isoquinolino[3,2-a]isoquinolin-7-ium chloride], 15.7 ± 1.34 µM corresponded to half-maximal inhibition (IC50) and the inhibition at 50 µM was 86.1%.
For `COc1ccc2cc3[n+](cc2c1OC(=O)c1ccccc1[N+](=O)[O-])CCc1cc2c(cc1-3)OCO2` [Compound 19, 10-methoxy-9-((2-nitrobenzoyl)oxy)-5,6-dihydro-[1,3]dioxolo[4,5-g]isoquinolino[3,2-a]isoquinolin-7-ium chloride], inhibition was half-maximal at 10.5 ± 1.03 µM (IC50) and the inhibition at 50 µM worked out at 81.6%.
As to `COc1ccc2cc3[n+](cc2c1OC(=O)c1ccc(C#N)cc1)CCc1cc2c(cc1-3)OCO2` [Compound 20, 9-((4-cyanobenzoyl)oxy)-10-methoxy-5,6-dihydro-[1,3]dioxolo[4,5-g]isoquinolino[3,2-a]isoquinolin-7-ium chloride], the IC50 is 26.5 ± 2.5 µM and the inhibition at 50 µM came to 55.6%.
In the case of `COc1ccc2cc3[n+](cc2c1OC(=O)c1c(Cl)cccc1Cl)CCc1cc2c(cc1-3)OCO2` [Compound 21, 9-((2,6-dichlorobenzoyl)oxy)-10-methoxy-5,6-dihydro-[1,3]dioxolo[4,5-g]isoquinolino[3,2-a]isoquinolin-7-ium chloride], the IC50 was 5.86 ± 0.35 µM and the inhibition at 50 µM was 96.6%.
Consider `COc1ccc2cc3[n+](cc2c1OC(=O)c1ccccc1C)CCc1cc2c(cc1-3)OCO2` [Compound 22, 10-methoxy-9-((2-methylbenzoyl)oxy)-5,6-dihydro-[1,3]dioxolo[4,5-g]isoquinolino[3,2-a]isoquinolin-7-ium chloride], for which half-maximal inhibition (IC50) required 18.1 ± 0.68 µM and the inhibition at 50 µM was found to be 90.6%.
The corresponding values for `COc1ccc2cc3[n+](cc2c1OC(=O)c1ccc(C)cc1)CCc1cc2c(cc1-3)OCO2` [Compound 23, 10-methoxy-9-((4-methylbenzoyl)oxy)-5,6-dihydro-[1,3]dioxolo[4,5-g]isoquinolino[3,2-a]isoquinolin-7-ium chloride] are 17.5 ± 1.11 µM and 78.9%.
On to `CCc1ccc(C(=O)Oc2c(OC)ccc3cc4[n+](cc23)CCc2cc3c(cc2-4)OCO3)cc1` [Compound 24, 9-((4-ethylbenzoyl)oxy)-10-methoxy-5,6-dihydro-[1,3]dioxolo[4,5-g]isoquinolino[3,2-a]isoquinolin-7-ium chloride], for which the IC50 stood at 12.5 ± 0.99 µM and the inhibition at 50 µM turned out to be 81%.
Consider `COc1ccc2cc3[n+](cc2c1OC(=O)c1ccc(C(C)(C)C)cc1)CCc1cc2c(cc1-3)OCO2` [Compound 25, 9-((4-(tert-butyl)benzoyl)oxy)-10-methoxy-5,6-dihydro-[1,3]dioxolo[4,5-g]isoquinolino[3,2-a]isoquinolin-7-ium chloride], for which the IC50 was determined as 3.53 ± 0.31 µM and the inhibition at 50 µM was 98.9%.
`COc1ccc2cc3[n+](cc2c1OC(=O)c1cccc2ccccc12)CCc1cc2c(cc1-3)OCO2` [Compound 27, 9-((1-naphthoyl)oxy)-10-methoxy-5,6-dihydro-[1,3]dioxolo[4,5-g]isoquinolino[3,2-a]isoquinolin-7-ium chloride]: the inhibition at 50 µM turned out to be 99.8%. Also, the IC50 (read-out: IC50) came out at 2.67 ± 0.27 µM.
